Results reported in patent US20020051982A1, “Novel BLR molecules affecting antibiotic susceptibility” (priority 2000, published 2002).
In brackets after ≈: the same amount, converted by molar mass. Where two headings read alike, the source gives them in different places.

Key:
Assay type in all cases: cell-based, E. coli
WY100 blr::TnphoA = assay: E-test susceptibility on LB agar, strain WY100 blr::TnphoA; set-up: unit not given here
[1] = test system: ASS111rif blr::TnphoA (=RW583); assay: E-test susceptibility on LB agar, strain RW583 without or with plasmids; set-up: unit not given here
WY100 = assay: E-test susceptibility on LB agar, strain WY100; set-up: unit not given here
AW1045 = assay: E-test susceptibility on LB agar, strain AW1045; set-up: unit not given here
[2] = test system: RW583 (ASS111rifblr::TnphoA); assay: MIC for ampicillin, complementation in RW583; conditions: Escherichia coli
ASS11rif (blr^+) = assay: MIC for ampicillin, complementation test, wild type host; conditions: Escherichia coli
[3] = test system: blr::TnphoA insertion mutant; assay: Decline in optical density of growing cultures; conditions: insertion mutant versus wild type
AW1045 blr::TnphoA = assay: E-test susceptibility on LB agar, strain AW1045 blr::TnphoA; set-up: unit not given here
RW583 = assay: Antibiotic susceptibility of the blr::TnphoA insertion mutant compared with the parent; conditions: for effect of the insertion on susceptibility: transconjugant RW583 (blr::TnphoA) versus parental strain
Source text: Donor E. coli K 12 strain S17-1 λpir (Tp^rSm^rrecA, thi, pro, hsdR^−M^+RP4;2-Tc:Mu:KmTn7,λpir; George and Levy. 1983. J Bacteriol 1983 Aug; 155 (2): 531-48) containing a conjugatable transposon-delivery plasmid pUT/Km (able to replicate only in the donor) which bore mini-Tn5phoA (de Lorenzo, V. & Timmis, K. N. Meth. Enzymol. 235, 386-404 (1994)) was mated with recipient ASS111rif and plated on kanamycin/rifamycin. Transconjugant RW583 had both PhoA activity and a 2-4 fold enhanced susceptibility to a wide spectrum of antibiotics […] including cephalosporins and imipenem (Table 1) as well as cycloserine and bacitracin, while susceptibility to tetracycline, chloramphenicol, nalidixic acid, norfloxacin, gentamicin, fosfomycin or valinomycin was not affected. The insertion was transduced (Provence, D. L. & Curtiss, R. I. in Methods for General and Molecular Bacteriology (ed. Gerhardt, P., Murry, R. G. E., Wood, W. A. & Kreig, N. R.) 317-347 (American Society for Microbiology, Washington D.C. 1994)) by bacteriophage P1 into other E. coli K12 strains, where it had the same effect on susceptibility (Table 1).
The cloned 358 base pairs region restored the wild type phenotype to the hypersusceptible strain bearing blr::TnphoA, regardless of orientation with respect to the lac promoter (Table 1, pRW23C vs pRW23D). The HindIII/PstI fragment of pACYC 184 (carrying the tet promoter and part of the tet gent) was replaced by the HindIII/PstI fragment from pRW23D. […] Therefore the 358 base pairs region appeared to contain all the information needed for complementation.

S26 blr^+ = assay: MIC for ampicillin, non-suppressor S26 host, blr^+; conditions: plasmid None;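 note: MIC in µg per mL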
S26su^+ blr::TnphoA = assay: MIC for ampicillin, leuX amber suppressor host S26su^+, blr::TnphoA;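 note: MIC in µg per mL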
S26su^+ blr^+ = assay: MIC for ampicillin, leuX amber suppressor host S26su^+, blr^+; conditions: plasmid None;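 note: MIC in µg per mL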
S26 blr::TnphoA = assay: MIC for ampicillin, non-suppressor S26 host, blr::TnphoA;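 note: MIC in µg per mL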
[4] = RW58s + pRW23D (blr^+, 358 base pairs)
[5] = RW583 + pRW23A (blr^+, 680 base pairs)
[6] = RW583 + pRW23C (blr^+, 358 base pairs)
[7] = strain ASS111rif blr::TnphoA (=RW583), no plasmid
[8] = Blr::TnphoA, pL24tag1 (amber blr)
[9] = Blr::TnphoA, pL39tag3 (amber L39 blr)
[10] = blr::TnphoA, pRW23C (wild type blr)

CC1(C)S[C@@H]2[C@H](NC(=O)[C@H](N)c3ccccc3)C(=O)N2[C@H]1C(=O)O [Ampicillin]
susceptibility (E-test strip) (WY100 blr::TnphoA): 0.75 | susceptibility (E-test strip) [1, 4]: 2 | susceptibility (E-test strip) ([1]; RW583 + pACYC184 (vector)): 0.5 | susceptibility (E-test strip) [1, 5]: 3 | susceptibility (E-test strip) [1, 6]: 2 | susceptibility (E-test strip) ([1]; RW583 + pUC19Sp^R (vector)): 0.25 | susceptibility (E-test strip) [1, 7]: 0.5 | susceptibility (E-test strip) (WY100): 3 | susceptibility (E-test strip) (AW1045): 3 | MIC ([2]; host RW583, plasmid None): 0.13 µg/mL (≈ 0.372 µM) | MIC ([2]; host RW583, plasmid PQ13tag1 (amber Q13 blr)): 1.1 µg/mL (≈ 3.15 µM) | MIC ([2]; host RW583, plasmid PV20tag1 (amber V20 blr)): 1.2 µg/mL (≈ 3.43 µM) | MIC ([2]; host RW583, plasmid pL24tag1 (amber L24 blr)): 0.13 µg/mL (≈ 0.372 µM) | MIC ([2]; host RW583, plasmid pRW23C (wild type blr)): 1.1 µg/mL (≈ 3.15 µM) | MIC ([2]; host RW583, plasmid pUC19-Sp^R (none)): 0.09 µg/mL (≈ 0.258 µM) | MIC (ASS11rif (blr^+); host ASS11rif blr^+, plasmid pRW23C (wild type blr), read-out: MIC for ampicillin): 1 µg/mL (≈ 2.86 µM) | MIC (ASS11rif (blr^+); read-out: MIC for ampicillin, host ASS11rif blr^+, plasmid None): 1.1 µg/mL (≈ 3.15 µM) | drug concentration required for decline in optical density of growing cultures [3]: lower drug concentration | susceptibility (E-test strip) (AW1045 blr::TnphoA): 0.75 | restoration of resistance by plasmid (RW583; blr::TnphoA strain with pRWA7 (no vector-derived promoter for blr)): completely restored resistance | MIC for ampicillin (S26 blr^+): 3.3 µg·mL | MIC for ampicillin (S26su^+ blr::TnphoA; [8]): 2.1 µg·mL | MIC for ampicillin (S26su^+ blr::TnphoA; [9]): 0.2 µg·mL | MIC for ampicillin (S26su^+ blr::TnphoA; [10]): 3.0 µg·mL | MIC for ampicillin (S26su^+ blr::TnphoA; blr::TnphoA, pUC19-Sp^R (none)): 1.1 µg·mL | MIC for ampicillin (S26su^+ blr::TnphoA; blr::TnphoA, plasmid None): 1.0 µg·mL | MIC for ampicillin (S26su^+ blr^+): 3.5 µg·mL | MIC for ampicillin (S26 blr::TnphoA; [8]): 0.9 µg·mL | MIC for ampicillin (S26 blr::TnphoA; [9]): 0.2 µg·mL | MIC for ampicillin (S26 blr::TnphoA; [10]): 2.8 µg·mL | MIC for ampicillin (S26 blr::TnphoA; blr::TnphoA, pUC19-Sp^R (none)): 0.5 µg·mL | MIC for ampicillin (S26 blr::TnphoA; blr::TnphoA, plasmid None): 0.5 µg·mL

CO/N=C(\C(=O)N[C@@H]1C(=O)N2C(C(=O)[O-])=C(C[N+]3(C)CCCC3)CS[C@H]12)c1csc(N)n1 [Cefepime]
susceptibility (E-test strip) (WY100 blr::TnphoA): <0.016 | susceptibility (E-test strip) [1, 4]: 0.023 | susceptibility (E-test strip) ([1]; RW583 + pACYC184 (vector)): <0.016 | susceptibility (E-test strip) [1, 5]: 0.032 | susceptibility (E-test strip) [1, 6]: 0.023 | susceptibility (E-test strip) ([1]; RW583 + pUC19Sp^R (vector)): <0.016 | susceptibility (E-test strip) [1, 7]: <0.016 | susceptibility (E-test strip) (WY100): 0.047 | susceptibility (E-test strip) (AW1045): 0.023 | susceptibility (E-test strip) (AW1045 blr::TnphoA): <0.016

CO[C@@]1(NC(=O)Cc2cccs2)C(=O)N2C(C(=O)O)=C(COC(N)=O)CS[C@@H]21 [Cefoxitin]
susceptibility (E-test strip) (WY100 blr::TnphoA): 1.5 | susceptibility (E-test strip) [1, 4]: 1.5 | susceptibility (E-test strip) ([1]; RW583 + pACYC184 (vector)): 0.75 | susceptibility (E-test strip) [1, 5]: 2 | susceptibility (E-test strip) [1, 6]: 1.5 | susceptibility (E-test strip) ([1]; RW583 + pUC19Sp^R (vector)): 0.75 | susceptibility (E-test strip) [1, 7]: 1.0 | susceptibility (E-test strip) (WY100): 3 | susceptibility (E-test strip) (AW1045): 3 | susceptibility (E-test strip) (AW1045 blr::TnphoA): 1.5

CO/N=C(\C(=O)N[C@@H]1C(=O)N2C(C(=O)O)=C(CSc3nc(=O)c(=O)[nH]n3C)CS[C@H]12)c1csc(N)n1 [Ceftriaxone]
susceptibility (E-test strip) (WY100 blr::TnphoA): 0.32 | susceptibility (E-test strip) [1, 4]: 0.016 | susceptibility (E-test strip) ([1]; RW583 + pACYC184 (vector)): <0.016 | susceptibility (E-test strip) [1, 5]: 0.023 | susceptibility (E-test strip) [1, 6]: 0.016 | susceptibility (E-test strip) ([1]; RW583 + pUC19Sp^R (vector)): <0.016 | susceptibility (E-test strip) [1, 7]: <0.016 | susceptibility (E-test strip) (WY100): 0.125 | susceptibility (E-test strip) (AW1045): 0.032 | susceptibility (E-test strip) (AW1045 blr::TnphoA): <0.016

C[C@@H](O)[C@H]1C(=O)N2C(C(=O)O)=C(SCCN=CN)C[C@H]12 [Imipene, imipenem]
susceptibility (E-test strip) (WY100 blr::TnphoA): 0.125 | susceptibility (E-test strip) [1, 4]: 0.25 | susceptibility (E-test strip) ([1]; RW583 + pACYC184 (vector)): 0.19 | susceptibility (E-test strip) [1, 5]: 0.38 | susceptibility (E-test strip) [1, 6]: 0.19 | susceptibility (E-test strip) ([1]; RW583 + pUC19Sp^R (vector)): 0.125 | susceptibility (E-test strip) [1, 7]: 0.19 | susceptibility (E-test strip) (WY100): 0.25 | susceptibility (E-test strip) (AW1045): 0.38 | susceptibility (E-test strip) (AW1045 blr::TnphoA): 0.125

CCN1CCN(C(=O)N[C@@H](C(=O)N[C@@H]2C(=O)N3[C@@H]2SC(C)(C)[C@@H]3C(=O)O)c2ccccc2)C(=O)C1=O [Pipericillin]
susceptibility (E-test strip) (WY100 blr::TnphoA): 0.75 | susceptibility (E-test strip) [1, 4]: 1.0 | susceptibility (E-test strip) ([1]; RW583 + pACYC184 (vector)): 0.25 | susceptibility (E-test strip) [1, 5]: 1.5 | susceptibility (E-test strip) [1, 6]: 1.0 | susceptibility (E-test strip) ([1]; RW583 + pUC19Sp^R (vector)): 1.25 | susceptibility (E-test strip) [1, 7]: 0.25 | susceptibility (E-test strip) (WY100): 1.5 | susceptibility (E-test strip) (AW1045): 1.0 | susceptibility (E-test strip) (AW1045 blr::TnphoA): 0.25

O=C(N[C@H](CO)[C@H](O)c1ccc([N+](=O)[O-])cc1)C(Cl)Cl [chloramphenicol]
effect of the insertion on susceptibility (RW583): not affected

C[C@@H]1O[C@@H]1P(=O)(O)O [fosfomycin]
effect of the insertion on susceptibility (RW583): not affected

CCn1cc(C(=O)O)c(=O)c2ccc(C)nc21 [nalidixic acid]
effect of the insertion on susceptibility (RW583): not affected

CCn1cc(C(=O)O)c(=O)c2cc(F)c(N3CCNCC3)cc21 [norfloxacin]
effect of the insertion on susceptibility (RW583): not affected

CC(C)[C@@H]1NC(=O)[C@H](C)OC(=O)[C@@H](C(C)C)NC(=O)[C@@H](C(C)C)OC(=O)[C@H](C(C)C)NC(=O)[C@H](C)OC(=O)[C@@H](C(C)C)NC(=O)[C@@H](C(C)C)OC(=O)[C@H](C(C)C)NC(=O)[C@H](C)OC(=O)[C@@H](C(C)C)NC(=O)[C@@H](C(C)C)OC1=O [valinomycin]
effect of the insertion on susceptibility (RW583): not affected

gentamicin
effect of the insertion on susceptibility (RW583): not affected
